# Data from US11753377B2, “Crystal form of 2-methyl-2-propanol and amino-substituted aryl compound” (ZHUHAI UNITED LABORATORIES CO., LTD., priority 2020, dated 2023).
# Where two headings read alike, the source gives them in different places.
# Key:
# CYP2D6 = biological target: T1, CYP2D6 (Homo sapiens, UniProt P10635); assay: Inhibition of human liver microsomal cytochrome P450 CYP2D6; assay type: in vitro ADME; settings: pooled human liver microsomes, probe substrate, NADPH
# T1 construct: pooled human liver microsomes were selected as a CYP450 enzyme source; from tissue; host or cells: pooled human liver microsomes
# Text: (§1) Experimental objective: To study the inhibitory effect of compounds on human liver microsomal cytochrome P450. Experimental processes: In the study on inhibition of the compounds on the human liver microsomal cytochrome P450 (CYP1A2, CYP2C9, CYP2C19, CYP2D6 and CYP3A4), pooled human liver microsomes were selected as a CYP450 enzyme source.
# xerophthalmia in mice = assay: In vivo efficacy: scopolamine-induced xerophthalmia in mice (tear test, corneal fluorescence staining score); design: species or system C57BL/6J mice; settings: scopolamine model, 0.5% eye drops 3 μL/eye 4 times/day
# Text: Subcutaneous injection of scopolamine may induce the xerophthalmia in mice. Decreased tear secretion and inflammatory infiltration can be observed by tear tests and corneal fluorescence staining scores. Furthermore, it is possible to predict whether the model can reach the expected severity at the beginning of the modeling.
# Experimental Design: • Twenty animals were selected from 25 female C57BL/6J mice and randomized into 4 groups by body weight via Provantis or Excel, […], and the grouping might also refer to the results of the tear test and the corneal fluorescence staining score of each animal prior to the experiment. • The mice were injected subcutaneously with scopolamine hydrobromide (3±0.5 h) for 4 times daily at 0.1 mL/animal/time on Day 1 to Day 12 of the experiment to establish xerophthalmia models in the mice. • On Day 1 to Day 13 of the experiment, animals were administrated by binocular eye drops for 4 times daily (3±0.5 h) at 3 μL/eye (on Day 13, animals in Group 1 were not administrated). […]
# Tear tests and corneal fluorescence staining scores were performed on all experimental animals on Day 7 and Day 12 prior to modeling.
# Criteria for corneal fluorescence staining scores: The cornea of an animal was divided into 5 regions, respectively being upper, lower, nasal, temporal and central regions, and each region was 0-3 points, and each region was scored. […]
# CYP1A2 = biological target: T2, CYP1A2 (Homo sapiens, UniProt P05177); assay: Inhibition of human liver microsomal cytochrome P450 CYP1A2; assay type: in vitro ADME; settings: pooled human liver microsomes, probe substrate, NADPH
# T2 construct: pooled human liver microsomes were selected as a CYP450 enzyme source; from tissue; host or cells: pooled human liver microsomes
# T2 sequence (P05177 1-516): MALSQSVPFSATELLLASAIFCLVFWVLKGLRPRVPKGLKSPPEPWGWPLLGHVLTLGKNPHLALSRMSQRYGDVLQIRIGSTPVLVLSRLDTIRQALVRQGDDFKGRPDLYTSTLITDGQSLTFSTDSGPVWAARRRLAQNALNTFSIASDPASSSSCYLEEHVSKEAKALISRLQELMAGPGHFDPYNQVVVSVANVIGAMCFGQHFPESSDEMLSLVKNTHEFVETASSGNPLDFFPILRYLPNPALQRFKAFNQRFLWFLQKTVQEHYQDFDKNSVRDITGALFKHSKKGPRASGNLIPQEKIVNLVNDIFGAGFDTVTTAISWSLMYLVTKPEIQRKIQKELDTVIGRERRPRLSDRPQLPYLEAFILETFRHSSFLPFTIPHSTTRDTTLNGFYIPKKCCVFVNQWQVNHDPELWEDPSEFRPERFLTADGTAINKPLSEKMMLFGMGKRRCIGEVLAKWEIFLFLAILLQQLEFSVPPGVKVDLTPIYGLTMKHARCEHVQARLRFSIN
# Text: as §1
# CYP2C19 = biological target: T3, CYP2C19 (Homo sapiens, UniProt P33261); assay: Inhibition of human liver microsomal cytochrome P450 CYP2C19; assay type: in vitro ADME; settings: pooled human liver microsomes, probe substrate, NADPH
# T3 construct: pooled human liver microsomes were selected as a CYP450 enzyme source; from tissue; host or cells: pooled human liver microsomes
# Text: as §1
# [1] = Pharmacokinetics in cynomolgus monkeys, single intravenous injection; assay type: in vivo; settings: male, cynomolgus monkey, plasma, 1 mg/kg single intravenous injection
# Experimental: Experimental objective: To study pharmacokinetics of the compound in cynomolgus monkeys
# Experimental material: Cynomolgus monkeys (male, 2.5-4 kg, greater than or equal to 2 years, Hainan Jingang)
# (§2) Pharmacokinetic characteristics of the compound were tested by intravenous injection in monkeys according to the standard protocol. In the experiment, the candidate compound was prepared as a clear solution, and was administrating to cynomolgus monkeys at 1 mg/kg by single intravenous injection. A vehicle for intravenous injection was a 10% hydroxypropyl β-cyclodextrin aqueous solution. Whole blood samples were collected at 0.033, 0.083, 0.25, 0.5, 1, 2, 4, 8, 12, and 24 hours, centrifuged at 3000 r for 10 min, and the supernatant was separated to obtain plasma samples. 20 μL of plasma samples were mixed with 400 μL of acetonitrile solution containing internal standard to precipitate protein, and the mixture was centrifuged, then 2 μL of the supernatant was injected. Plasma concentrations were quantitatively analyzed by LC-MS/MS analysis method, and pharmacokinetic parameters, such as clearance rate, half-life, and area under the concentration-time curve, were calculated.
# [2] = In vitro aldehyde capture capacity experiment (complexation with nonanal, HPLC at 254 nm)
# Text: Experimental Embodiment 1: In Vitro Aldehyde Capture Capacity Experiment
# 1. Experiment Objectives and Processes
# Objectives: Xerophthalmia is caused by inflammation inside the eyes, wherein the inflammation may produce aldehydes in the body that will accelerate the inflammation symptoms and worsen the xerophthalmia if not eliminated in time. In the experiment, a relatively good compound was selected according to the complexing capacity of the drug and aldehydes in vivo by simulating the in vivo environment.
# Processes: Sulfobutyl-B-cyclodextrin (310 mg) was dissolved in a phosphate buffer (1.25 mL) to prepare a solution.
# Nonanal (5.0 mg, 32 μmol, 1.0 eq) and triolein (300 mg) were added to a reaction flask at room temperature, after the prepared solution described above was added thereto, linoleic acid (300 mg) was added thereto, and finally a dimethyl sulfoxide (0.15 mL) solution containing the compound (32 μmol, 1.0 eq) of the present disclosure was added thereto; the reaction solution was reacted at 20-23° C.
# The reaction solution was reacted under stirring for 10 min, 100 min, 200 min, and 300 min respectively, and sampled for high performance liquid chromatography after the solution was stratified after standing for 2 min.
# Sampling method: 25 μL of an upper emulsified layer and 50 μL of a lower aqueous layer were sampled by a pipette, and samples were diluted with 1 mL of methanol.
# Therefore, the percentage contents of complexes at 254 nm under high performance liquid chromatography were compared to observe the ability of compounds to capture and complex aldehydes, as shown in FIG. 4 and Table 6:
# The HPLC analysis method is detailed in Table 7, which is XBRIGE 2.5 μm, 3.0*100 mm 5-80CD_XBEH_12 min_0.8.lcm
# After 300 min of reaction, retention times of 6.689 min, 6.787 min, 6.966 min, and 7.102 min were absorption peaks of products complexed with monomolecular aldehyde; retention times of 8.905 min, 9.010 min, and 9.075 min were absorption peaks of products complexed with bimolecular aldehyde.
# [3] = Corneal to plasma drug concentration after eye drop administration in rats; assay type: in vivo; settings: male, rat, topical, SD rats
# Experimental: Experimental objective: To study the ratio of corneal to plasma drug concentration after eye drop administration in rats
# Experimental material: Male SD rats, 200-300 g, 7-9 weeks old, Shanghai Lingchang
# Experimental processes: The candidate compound was prepared as a clear solution, and administrating to SD rats by eye drop administration. The vehicle for eye drops was 10% hydroxypropyl β-cyclodextrin aqueous solution, and the drug concentration in the eye drops was 5 mg/mL. Corneal and whole blood samples were collected at 1 and 4 hours, respectively. Corneal was homogenized using 15 mM phosphate buffer (PBS): MeOH (2:1, v:v) buffer, then the whole blood samples were centrifuged at 3000 r for 10 min, and the supernatant plasma samples were separated. 20 μL of the plasma samples and homogenate samples were respectively mixed with 400 μL of acetonitrile solution containing internal standard to precipitate protein, and the mixture was centrifuged, then 2 μL of the supernatant was injected. The plasma concentrations were quantitatively analyzed by LC-MS/MS analysis method; the drug concentrations in the cornea and plasma were measured respectively according to different time points, and the ratio of corneal/plasma was calculated.
# CYP3A4 = biological target: T4, CYP3A4 (Homo sapiens, UniProt P08684); assay: Inhibition of human liver microsomal cytochrome P450 CYP3A4; assay type: in vitro ADME; settings: pooled human liver microsomes, two probe substrates, NADPH
# T4 construct: pooled human liver microsomes were selected as a CYP450 enzyme source; from tissue; host or cells: pooled human liver microsomes
# Text: as §1
# [4] = Pharmacokinetics in Beagle dogs, single intravenous injection; assay type: in vivo; settings: male, dog, plasma, 1 mg/kg single intravenous injection
# Experimental: Experimental objective: To study pharmacokinetics of the compound in Beagle dogs
# Experimental material: Beagle dogs (male, 8-11 kg, greater than or equal to 6 months, Marshall)
# as §2, with “rodents” for “monkeys”, “Beagle dogs” for “cynomolgus monkeys”, “hours, respectively,” for “hours,”
# CYP2C9 = biological target: T5, CYP2C9 (Homo sapiens, UniProt P11712); assay: Inhibition of human liver microsomal cytochrome P450 CYP2C9; assay type: in vitro ADME; settings: pooled human liver microsomes, probe substrate, NADPH
# T5 construct: pooled human liver microsomes were selected as a CYP450 enzyme source; from tissue; host or cells: pooled human liver microsomes
# Text: as §1
# [5] = read-out: Area under the concentration-time curve AUC
# [6] = read-out: Half-life T1/2 (converted)
# T5 sequence (P11712 whole entry): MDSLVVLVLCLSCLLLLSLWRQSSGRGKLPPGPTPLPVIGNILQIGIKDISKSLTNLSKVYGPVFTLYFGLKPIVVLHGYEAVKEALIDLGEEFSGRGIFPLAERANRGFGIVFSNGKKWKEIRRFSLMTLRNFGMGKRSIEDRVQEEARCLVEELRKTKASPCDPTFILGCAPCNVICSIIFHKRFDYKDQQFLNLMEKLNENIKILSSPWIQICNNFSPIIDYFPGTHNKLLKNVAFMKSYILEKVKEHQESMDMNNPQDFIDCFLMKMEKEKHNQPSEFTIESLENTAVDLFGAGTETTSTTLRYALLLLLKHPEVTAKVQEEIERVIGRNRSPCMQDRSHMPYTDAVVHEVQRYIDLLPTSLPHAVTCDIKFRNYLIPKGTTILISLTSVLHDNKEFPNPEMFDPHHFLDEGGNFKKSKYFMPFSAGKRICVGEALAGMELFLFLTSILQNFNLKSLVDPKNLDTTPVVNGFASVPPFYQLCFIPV
# T1 sequence (P10635 whole entry): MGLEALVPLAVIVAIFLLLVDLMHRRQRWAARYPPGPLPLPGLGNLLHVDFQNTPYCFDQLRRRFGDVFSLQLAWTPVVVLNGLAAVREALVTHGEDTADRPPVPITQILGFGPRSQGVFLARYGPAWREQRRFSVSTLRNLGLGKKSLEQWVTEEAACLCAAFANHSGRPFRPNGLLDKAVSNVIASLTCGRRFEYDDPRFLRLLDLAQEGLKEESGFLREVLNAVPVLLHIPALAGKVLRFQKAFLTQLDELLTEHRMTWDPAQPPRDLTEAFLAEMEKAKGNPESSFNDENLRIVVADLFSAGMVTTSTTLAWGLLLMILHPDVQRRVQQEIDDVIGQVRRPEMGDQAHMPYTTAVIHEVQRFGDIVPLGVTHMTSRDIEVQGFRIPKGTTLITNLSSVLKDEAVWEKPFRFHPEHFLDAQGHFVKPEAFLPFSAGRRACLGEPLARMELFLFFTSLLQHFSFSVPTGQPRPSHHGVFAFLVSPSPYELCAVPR
# T4 sequence (P08684 whole entry): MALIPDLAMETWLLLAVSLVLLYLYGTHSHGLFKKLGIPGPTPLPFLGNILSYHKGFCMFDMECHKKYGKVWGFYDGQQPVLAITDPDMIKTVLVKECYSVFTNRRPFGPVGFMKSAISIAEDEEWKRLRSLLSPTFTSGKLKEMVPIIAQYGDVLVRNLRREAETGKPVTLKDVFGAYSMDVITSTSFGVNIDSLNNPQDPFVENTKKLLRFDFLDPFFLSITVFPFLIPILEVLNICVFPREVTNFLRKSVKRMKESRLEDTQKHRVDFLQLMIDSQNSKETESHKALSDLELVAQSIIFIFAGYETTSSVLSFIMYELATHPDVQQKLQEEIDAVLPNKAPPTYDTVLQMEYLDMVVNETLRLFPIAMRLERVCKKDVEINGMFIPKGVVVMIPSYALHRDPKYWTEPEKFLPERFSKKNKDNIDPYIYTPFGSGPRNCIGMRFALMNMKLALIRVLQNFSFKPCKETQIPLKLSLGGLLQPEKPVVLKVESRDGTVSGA
# T3 sequence (P33261 whole entry): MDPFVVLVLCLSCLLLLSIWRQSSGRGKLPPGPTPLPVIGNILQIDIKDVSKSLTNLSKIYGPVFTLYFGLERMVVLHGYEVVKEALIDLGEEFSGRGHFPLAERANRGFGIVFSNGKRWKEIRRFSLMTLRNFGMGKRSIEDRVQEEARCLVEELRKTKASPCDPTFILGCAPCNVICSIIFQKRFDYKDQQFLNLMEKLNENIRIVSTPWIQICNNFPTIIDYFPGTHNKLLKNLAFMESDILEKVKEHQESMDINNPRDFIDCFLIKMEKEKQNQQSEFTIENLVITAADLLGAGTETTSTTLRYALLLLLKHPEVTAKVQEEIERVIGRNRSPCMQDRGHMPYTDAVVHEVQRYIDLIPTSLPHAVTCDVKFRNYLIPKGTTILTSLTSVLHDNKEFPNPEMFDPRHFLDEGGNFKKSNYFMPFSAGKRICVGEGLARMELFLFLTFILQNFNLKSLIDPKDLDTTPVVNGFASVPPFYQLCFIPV
smiles,measurement,setting,value
CC(C)(O)c1cc(F)c(-c2cnc(C(C)(C)O)c(N)c2)cc1N [Compound represented by formula (I)],IC50,CYP2D6,> 50 µM
same,Tear secretion,xerophthalmia in mice; FIG. 5,improve
same,Corneal inflammation (corneal fluorescence staining),xerophthalmia in mice; FIG. 6,improve
same,IC50,CYP1A2,> 50 µM
same,IC50,CYP2C19,> 50 µM
same,AUC,[1]; [5],13 µM·h
same,clearance,[1]; read-out: Clearance rate,4.6 mL/min/kg
same,half-life,[1]; [6],3.91 h
same,Ability and speed of complexing aldehydes,[2],very significant
same,Percentage content of complexes at 254 nm,[2]; Time 10 min,6.634%
same,Percentage content of complexes at 254 nm,[2]; Time 100 min,20.013%
same,Percentage content of complexes at 254 nm,[2]; Time 200 min,29.424%
same,Percentage content of complexes at 254 nm,[2]; Time 300 min,36.039%
same,Area under the curve AUC,"[2]; percentage content of complexes at 254 nm versus time, 10-300 min",6944 min.conversion
same,Slope,"[2]; slope of linear equation, percentage content of complexes at 254 nm versus time 10-300 min, nonanal 1.0 eq, 20-23° C.",0.1002
same,concentration at 1 h,"[3]; cornea, eye drops 5 mg/mL, 1 h, read-out: Corneal concentration",2450 nM
same,concentration at 4 h,"[3]; cornea, eye drops 5 mg/mL, 4 h, read-out: Corneal concentration",330 nM
same,Kp,"[3]; cornea/plasma, 5 mg/mL, eye drop administration, read-out: Ratio of cornea/plasma",> 10
same,Kp at 1 h,"[3]; cornea/plasma, eye drops 5 mg/mL, 1 h, read-out: Corneal concentration/plasma concentration C/P ratio",11.8
same,Kp at 4 h,"[3]; cornea/plasma, eye drops 5 mg/mL, 4 h, read-out: Corneal concentration/plasma concentration C/P ratio",12.4
same,concentration at 1 h,"[3]; plasma, eye drops 5 mg/mL, 1 h, read-out: Plasma concentration",172 nM
same,concentration at 4 h,"[3]; plasma, eye drops 5 mg/mL, 4 h, read-out: Plasma concentration",24.4 nM
same,IC50,CYP3A4,> 50 µM
same,AUC,[4]; [5],4.67 µM·h
same,clearance,[4]; read-out: Clearance rate,11.3 mL/min/kg
same,half-life,[4]; [6],2.94 h
same,IC50,CYP2C9,> 50 µM
